# Measurements published in publication PMC6651024, “LIR Motif-Containing Hyperdisulfide β-Ginkgotide is Cytoprotective, Adaptogenic, and Scaffold-Ready” (Molecules, 2019).
# “Also recorded” adds a separate entry of the source. Where a SMILES comes first, the peptide text is derived from it. The star is where a group is joined. Cam = NC(=O)C*
# Assays:
# trypsin = assay: Enzymatic (proteolytic) stability against trypsin; type: in vitro ADME; settings: trypsin, 37 °C, five minute treatment; MALDI-TOF MS and C18 RP-HPLC
# Protocol: (§1) To assess the proteolytic stability of β-gB1, it was treated with trypsin or pepsin for 6 h. […] Similarly, the S-alkylated β-gB1 was degraded completely by pepsin within 30 min. […] This is in agreement with other plant CRPs that contain a compact structure, whose proteolytic stability was examined up to six hours treatment.
# (§2) The folded β-gB1 (28 µg) was added to 100 μL of a 0.1 M ammonium bicarbonate buffer (pH 7.8) containing 800 U/mL of trypsin or 4 mg/mL of pepsin and incubated at 37 °C for 6 h. At each time-point (0, 1, 2, 4, and 6 h), 20 µL of the treated sample was aliquoted and quenched by adding 5 µL of 1 M hydrochloric acid or 0.8 μL of 1 M sodium hydroxide. The reduced β-gB1 was alkylated with iodoacetamide (S-alkylated β-gB1) and used as a control in this study. The reaction mixture was analyzed by MALDI-TOF MS and C18-reversed-phase HPLC to determine its stability.
# pepsin = target: T1, pepsin (Sus scrofa, UniProt P00791); assay: Enzymatic (proteolytic) stability against pepsin; type: in vitro ADME; settings: 37 °C, MALDI-TOF MS and C18 RP-HPLC
# T1 construct: purchased Sigma-Aldrich
# T1 sequence (P00791 60-385): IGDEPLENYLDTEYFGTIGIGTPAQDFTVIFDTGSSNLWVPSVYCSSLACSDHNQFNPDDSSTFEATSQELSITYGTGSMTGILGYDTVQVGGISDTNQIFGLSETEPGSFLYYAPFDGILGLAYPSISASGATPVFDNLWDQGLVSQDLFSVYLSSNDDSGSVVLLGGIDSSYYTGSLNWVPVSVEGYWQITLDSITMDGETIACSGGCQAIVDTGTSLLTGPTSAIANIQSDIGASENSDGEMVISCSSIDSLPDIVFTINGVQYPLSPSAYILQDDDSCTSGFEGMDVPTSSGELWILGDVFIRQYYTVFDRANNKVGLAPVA
# Protocol: as §1, §2
# H9c2 cells [1] = assay: MTT-based cell proliferation assay under normoxia, H9c2; parameters: species or system rat; settings: H9c2, 10 µM peptide, 48 h, triplicates
# Text: (§3) In addition, β-gB1 is non-toxic to Vero and BHK (baby hamster kidney) cell lines based on an MTT assay. […] LDH is a cytoplasmic enzyme which is rapidly released into the cell culture medium upon plasma membrane damage and is widely used as a marker for cytotoxicity. Thus, an LDH-release assay measures the level of plasma membrane damage to a cell population.
# (§4) Rat cardio-myoblast cells (H9c2) and […] neuron-like SH-SY5Y cells were purchased from ATCC and maintained in DMEM (Dulbecco’s modified eagle medium) medium supplemented with 10% fetal bovine serum (FBS), 10,000 U/mL of penicillin, and 10,000 µg/mL of streptomycin at 37 °C, 5% CO2.
# (§5) Cells were cultured in DMEM with or without β-gB1/S-alkylated β-gB1 (β-gB1Alk) for 48 h under normoxia, hypoxia, and hypoxia-reoxygenation conditions. Phosphate-buffered saline (PBS) was used as a vehicle control. After 48 h, MTT (3-(4,5-dimethylthiazol-2-yl)-2,5-diphenyltetrazolium bromide) reagent was added with a final concentration of 0.5 mg/mL, and it was incubated at 37 °C for 2 h. The culture medium was then aspirated, and purple formazan crystals were dissolved in DMSO for colorimetric quantification at 570 nm using a microplate reader with a reference wavelength of 630 nm. […]
# SH-SY5Y cells [2] = assay: MTT-based cell proliferation assay under normoxia, SH-SY5Y; parameters: species or system human; settings: 10 µM peptide, 48 h, triplicates
# Text: as §3, §4, §5
# H9c2 cells [3] = assay: LDH release cytotoxicity assay, H9c2; type: cell-based, rat; settings: H9c2, 10 µM peptide, 48 h, 37 °C; LDH kit, 450 nm; triplicates
# Text: as §3, §4
# (§6) An LDH release assay was performed using the CytoSelect™ LDH cytotoxicity assay kit (CBA-241, Cell Biolabs, Inc., San Diego, CA, USA). In brief, cells were cultured in DMEM with or without 10 µM of β-gB1 and S-alkylated β-gB1 (β-gB1Alk) for 48 h at 37 °C and 5% CO2. PBS was used for the vehicle control experiment. The culture medium was transferred and mixed with the LDH assay reagent in a ratio of 9:1. The reaction mixture was incubated at 37 °C for 2 h, and colorimetric quantification was performed using a 450 nm wavelength. The assay was performed in experimental triplicates, and statistical calculations and bar graphs were done using GraphPad Prism software (Version 6.01). […]
# SH-SY5Y cells [4] = assay: LDH release cytotoxicity assay, SH-SY5Y; type: cell-based, mouse; settings: 10 µM peptide, 48 h, 37 °C, LDH kit, 450 nm, triplicates
# Text: as §3, §4, §6
smiles,measurement,setting,value
"CC[C@H](C)[C@H](NC(=O)[C@H](CSCC(N)=O)NC(=O)CNC(=O)[C@H](Cc1ccc(O)cc1)NC(=O)[C@H](CCC(=O)O)NC(=O)[C@H](CC(=O)O)NC(=O)[C@H](CC(C)C)NC(=O)[C@H](Cc1ccc(O)cc1)NC(=O)[C@H](CSCC(N)=O)NC(=O)[C@H](CSCC(N)=O)NC(=O)[C@H](CCCNC(=N)N)NC(=O)[C@H](CCCCN)NC(=O)[C@H](CSCC(N)=O)NC(=O)CNC(=O)[C@@H](NC(=O)[C@H](CCC(=O)O)NC(=O)[C@@H](N)Cc1ccc(O)cc1)[C@@H](C)O)C(=O)N[C@@H](CCCNC(=N)N)C(=O)N[C@@H](CSCC(N)=O)C(=O)N[C@@H](CSCC(N)=O)C(=O)O [S-alkylated β-gB1, reference compound] (H-YETGC(Cam)KRC(Cam)C(Cam)YLDEYGC(Cam)IRC(Cam)C(Cam)-OH)",Degradation by trypsin after five minute treatment,trypsin,completely degraded
same,Time to complete degradation by pepsin,pepsin,≤ 30 min
same,Cell viability (growth or death) under normoxia,H9c2 cells [1],No change in cell viability; also recorded: no significant effect on the growth or death
same,Cell viability (growth or death) under normoxia,SH-SY5Y cells [2],No change in cell viability; also recorded: no significant effect on the growth or death
same,Cytotoxicity / cell-membrane damage by LDH release,H9c2 cells [3],no significant cytotoxicity or cell-membrane damaging effects
same,Cytotoxicity / cell-membrane damage by LDH release,SH-SY5Y cells [4],no significant cytotoxicity or cell-membrane damaging effects
